Results as given in publication PMC5338263, “GS-5734 and its parent nucleoside analog inhibit Filo-, Pneumo-, and Paramyxoviruses” (Scientific Reports, 2017).

Experiments:
Pneumo = assay: Potency by virus family (Fig. 2), Pneumo; type: cell-based; conditions: read-out: potency class (EC50)
NiV B-2004 [1] = test system: NiV B-2004
Ebola virus = conditions: human, in vivo; cited from earlier work
[2] = test system: MARV Rec. Bat371-Gluc (Marburg virus); assay: in vitro; conditions: human
[3] = test system: ANDV Chile 9717869 (Andes virus); assay: in vitro; conditions: human
[4] = test system: AHFV 200300001 (Alkhurma Hemorrhagic Fever virus); assay: in vitro; conditions: human
[5] = test system: TBEV Hypr (Tick-borne Encephalitis virus); assay: in vitro; conditions: human
EBOV wt Makona = assay: microbe, parasite or virus in culture; type: cell-based, Ebola virus; conditions: Zaire ebolavirus, Huh-7
[6] = test system: MV EZ vaccine (Measles virus); assay: in vitro; conditions: human
NiV B-2004 [7] = assay: microbe, parasite or virus in culture; conditions: Henipavirus nipahense, HeLa

SMILES	EC50 (Pneumo)	EC50 (MARV Rec. Bat371-Gluc)	EC50 (NiV B-2004 [1])	EC50 (LASV Josiah)	survival of patients (Ebola virus)	selectivity ratio [2]	selectivity ratio [3]	selectivity ratio [4]	selectivity ratio [5]	EC50 (EBOV wt Makona)	EC50 (MV EZ vaccine)	selectivity ratio [6]	EC90 (NiV B-2004 [7])
CCC(CC)COC(=O)[C@H](C)N[P@](=O)(OC[C@H]1O[C@@](C#N)(c2ccc3c(N)ncnn23)[C@H](O)[C@@H]1O)Oc1ccccc1 [GS-5734]	< 100 nM	19 nM	32 nM	4.5 µM	both of whom survived	526	1.4	2.4	4.8				
N#C[C@@]1(c2ccc3c(N)ncnn23)O[C@H](CO)[C@@H](O)[C@H]1O [Nuc]										1610 ± 420 nM	2000 nM	25	2200 nM
